Data: paper PMC11578313, “Miniaturized Modular Click Chemistry‐enabled Rapid Discovery of Unique SARS‐CoV‐2 M^pro Inhibitors With Robust Potency and Drug‐like Profile” (Advanced Science, 2024)
Where two headings read alike, the source gives them in different places.

Assay: In vivo pharmacokinetic study in male ICR mice (compound alone)
Settings: male, ICR, mouse, plasma
Description: The pharmacokinetics profile of the newly developed antiviral compound C5N17B was subsequently evaluated in male ICR mice that were free from specific pathogens, aiming to assess its potential for therapeutic application in vivo.
A total of six male ICR mice were randomly assigned to two groups. One group received the test drug intravenously at a dosage of 2 mg kg^−1, while the other group received oral administration at a dosage of 10 mg kg^−1. To prepare solutions of C5N17B, 2.39 mg compound was dissolved in a mixture of 0.119 mL DMSO, 0.238 mL polyoxyl 15 hydroxystearate (Solutol), and 2.027 mL normal saline. For the intravenous group, blood samples were collected from the sinus jugular into heparinized centrifugation tubes at various time points after dosing: 5, 15, 30 min, 1, 2, 4, 6, 8, and 24 h. As for the oral administration group, blood samples were collected at similar time points (0.05 mL of blood each time). The collected blood samples were then centrifuged at a speed of 4000 rpm for 10 min to separate plasma, which was subsequently stored at −20 °C until further LC‐MS analysis to determine the concentration of C5N17B. Briefly, the analysis involved adding 20 µL of plasma, sample calibration standard, quality control, and dilution quality control, and blank samples into respective wells on a 96‐well plate. Then each sample was quenched with 200 µL of internal standard (the blank sample was quenched with 200 µL of ACN: MeOH = 1:1), followed by vortex‐mixed for 5 min, and centrifuged for 0.5 min at 4000 rpm, 4 °C. Next, a 100 µL portion of supernatant was transferred to another clean 96‐well plate and diluted with 100 µL of water, vortex‐mixed for 5 min and centrifuged for 10 min at 4000 rpm, 4 °C, then the sample was injected for LC‐MS/MS analysis. All samples were quantified using an LC‐MS/MS‐AR Triple Quad 5500+ (SCIEX, USA) and the ExionLC liquid phase system. The mobile phase was 0.1% formic acid‐water/ACN with gradient elute at a flow rate of 0.8 mL mi^−1n (total time 2.20 min), and the detection wavelength was 225 nm. All blood samples were centrifuged using an Eppendorf 5424R centrifuge and quantified using an LC‐MS/MS‐AR Triple Quad 5500+ (SCIEX, USA). The pharmacokinetic parameters were calculated by WinNolin 8.2 software.

Cc1cncc(C(=O)N2C[C@H]3CC[C@@H](C2)N3[C@H](c2cccc(F)c2)c2cn(CCc3ccsc3)nn2)c1 [Compound C5N17B] gave an AUC (iv, 2 mg/kg, i.v. 2 mg kg^−1, male ICR mice, n = 3, read-out: AUC0‐∞, i.v.) of 65.9 ± 14.9 ng·h/mL, a clearance (iv, 2 mg/kg, i.v. 2 mg kg^−1, male ICR mice, n = 3, read-out: CL, i.v. (converted)) of 524 mL/min/kg and a Cmax (iv, 2 mg/kg, i.v. 2 mg kg^−1, male ICR mice, n = 3, read-out: Cmax, i.v.) of 237 ± 53.6 ng/mL. The MRT (iv, 2 mg/kg, i.v. 2 mg kg^−1, male ICR mice, n = 3, read-out: MRT0‐t, i.v.) was 5.81 ± 894 min, the MRT (iv, 2 mg/kg, i.v. 2 mg kg^−1, male ICR mice, n = 3, read-out: MRT0‐∞, i.v.) was 6.96 ± 0.391 min and the Tmax (iv, 2 mg/kg, i.v. 2 mg kg^−1, male ICR mice, n = 3, read-out: Tmax, i.v.) was 4.98 min. The half-life (iv, 2 mg/kg, i.v. 2 mg kg^−1, male ICR mice, n = 3, read-out: t1/2, i.v. (converted)) was 6.6 min, the bioavailability (oral, 10 mg kg^−1, p.o. 10 mg kg^−1 vs i.v. 2 mg kg^−1, male ICR mice, read-out: F (oral bioavailability)) was 13% and the concentration at 5 min (oral, 10 mg/kg, PO 10 mg/kg (10MPK), 5 min, mean of mice 4#-6#, read-out: Plasma concentration, Mean) was 40.6 ng/mL. It also gave a concentration at 15 min (oral, 10 mg/kg, PO 10 mg/kg (10MPK), 15 min, mouse plasma, individual mice 4-6, read-out: Plasma concentration (Calculated Concentration)) of 18 ng/mL, a concentration at 30 min (oral, 10 mg/kg, PO 10 mg/kg (10MPK), 30 min, sample marked "re", individual mouse, read-out: Plasma concentration (Calculated Concentration), re-analysis) of 4.52 ng/mL and a concentration at 1 hr (oral, 10 mg/kg, PO 10 mg/kg (10MPK), 1 hr, samples marked "re", individual mice, read-out: Plasma concentration (Calculated Concentration), re-analysis) of 7.4 ng/mL. It also gave a concentration at 2 hr (oral, 10 mg/kg, PO 10 mg/kg (10MPK), 2 hr, sample marked "re", individual mouse, read-out: Plasma concentration (Calculated Concentration), re-analysis) of 15.7 ng/mL, a concentration at 4 h (oral, 10 mg/kg, PO 10 mg/kg (10MPK), 4 hr, mouse plasma, individual mice 4-6, read-out: Plasma concentration (Calculated Concentration)) of 5.85 ng/mL and a concentration at 6 h (oral, 10 mg/kg, PO 10 mg/kg (10MPK), 6 hr, mouse plasma, individual mice 4-6, read-out: Plasma concentration (Calculated Concentration)) of 2.52 ng/mL. It also gave a Tmax (po, 10 mg/kg, PO 10 mg/kg (10MPK), individual mice 4#-6#, read-out: Tmax) of 5 min, a half-life (po, 10 mg/kg, PO 10 mg/kg (10MPK), mean of mice 4#-6#, read-out: T1/2, Mean (converted)) of 213 min and a Tmax (po, 10 mg/kg, PO 10 mg/kg (10MPK), mean of mice 4#-6#, read-out: Tmax, Mean) of 5 min. It also gave a concentration at 0.5 h (po, 10 mg/kg, PO 10 mg/kg, 0.50 h, mean of mice 4#-6#, read-out: plasma concentration, Mean) of 8.28 ng/mL, a concentration at 1 h (po, 10 mg/kg, PO 10 mg/kg, 1 h, mean of mice 4#-6#) of 7.2 ng/mL and a concentration at 2 h (po, 10 mg/kg, PO 10 mg/kg, 2 h, mean of mice 4#-6#) of 10.5 ng/mL. For the same compound, the concentration at 4 h (po, 10 mg/kg, PO 10 mg/kg, 4 h, individual mice 4#-6#, read-out: plasma concentration) was 5.85 ng/mL, the concentration at 4 h (po, 10 mg/kg, PO 10 mg/kg, 4 h, mean of mice 4#-6#, read-out: plasma concentration, Mean) was 5.98 ng/mL and the concentration at 6 h (po, 10 mg/kg, PO 10 mg/kg, 6 h, individual mice 4#-6#, read-out: plasma concentration) was 2.52 ng/mL. It also gave a concentration at 6 h (po, 10 mg/kg, PO 10 mg/kg, 6 h, mean (only 5# quantifiable), read-out: plasma concentration, Mean) of 2.52 ng/mL, an AUC(0-t) (po, 10 mg/kg, PO 10 mg/kg, individual mice 4#-6#, read-out: AUC0-t) of 30.4 ng·h/mL and an AUC(0-inf) (po, 10 mg/kg, PO 10 mg/kg, individual mice 4#-6#, read-out: AUC0-∞) of 59.6 ng·h/mL. The bioavailability (po, 10 mg/kg, PO 10 mg/kg, individual mice 4#-6#, read-out: F) was 9.56%, the MRT last (po, 10 mg/kg, PO 10 mg/kg, individual mice 4#-6#, read-out: MRT0-t) was 97.2 min and the AUC(0-inf) (po, 10 mg/kg, PO 10 mg/kg, individual mice 4-6, read-out: AUCINF_obs) was 59.6 ng·h/mL. For the same compound, the AUC(0-inf) (po, 10 mg/kg, PO 10 mg/kg, individual mice 4-6, read-out: AUCINF_pred) was 55 ng·h/mL, the AUC (po, 10 mg/kg, PO 10 mg/kg, individual mice 4-6, read-out: AUCall) was 30.4 ng·h/mL and the AUC(0-t) (po, 10 mg/kg, PO 10 mg/kg, individual mice 4-6, read-out: AUClast) was 30.4 ng·h/mL. For the same compound, the CL/F (po, 10 mg/kg, PO 10 mg/kg, individual mice 4-6, read-out: Cl_F_obs (converted)) was 2800 mL/min/kg, the MRT last (po, 10 mg/kg, PO 10 mg/kg, individual mice 4-6, read-out: MRTlast) was 97.3 min and the Tmax (po, 10 mg/kg, PO 10 mg/kg, individual mice 4-6, read-out: Tmax) was 5 min. The AUC(0-t) (po, 10 mg/kg, PO 10 mg/kg, mean of mice 4#-6#, read-out: AUC0-t, Mean) was 41.3 ng·h/mL, the AUC(0-inf) (po, 10 mg/kg, PO 10 mg/kg, mean of mice 4#-6#, read-out: AUC0-∞, Mean) was 71.9 ng·h/mL and the Cmax (po, 10 mg/kg, PO 10 mg/kg, mean of mice 4#-6#, read-out: Cmax, Mean) was 40.6 ng/mL. The MRT last (po, 10 mg/kg, PO 10 mg/kg, mean of mice 4#-6#, read-out: MRT0-t, Mean) was 107 min, the MRT inf (po, 10 mg/kg, PO 10 mg/kg, mean of mice 4#-6#, read-out: MRT0-∞, Mean) was 300 min and the AUC (po, 10 mg/kg, p.o. 10 mg kg^−1, male ICR mice, n = 3, read-out: AUC0‐t, p.o.) was 41.3 ± 9.5 ng·h/mL. It also gave an AUC (po, 10 mg/kg, p.o. 10 mg kg^−1, male ICR mice, n = 3, read-out: AUC0‐∞, p.o.) of 71.9 ± 26 ng·h/mL, a Cmax (po, 10 mg/kg, p.o. 10 mg kg^−1, male ICR mice, n = 3, read-out: Cmax, p.o.) of 40.6 ± 24.1 ng/mL and an MRT (po, 10 mg/kg, p.o. 10 mg kg^−1, male ICR mice, n = 3, read-out: MRT0‐t, p.o.) of 107 ± 8.7 min. For the same compound, the MRT (po, 10 mg/kg, p.o. 10 mg kg^−1, male ICR mice, n = 3, read-out: MRT0‐∞, p.o.) was 300 ± 108 min, the Tmax (po, 10 mg/kg, p.o. 10 mg kg^−1, male ICR mice, n = 3, read-out: Tmax, p.o.) was 4.8 min and the half-life (po, 10 mg/kg, p.o. 10 mg kg^−1, male ICR mice, n = 3, read-out: t1/2, p.o. (converted)) was 213 ± 72 min. It also gave a Cmax (po, 10 mg/kg, p.o. 10 mg kg^−1, male ICR mice, read-out: Cmax, p.o.) of 78.6 nM.
